# Experimental data from patent publication US5206162A, “Process for making D-aminoacylase” (National Science Council of Republic of China, priority 1991, dated 1993).
# Target: T1, D-aminoacylase (Alcaligenes faecalis, UniProt Q9AGH8)
# T1 sequence (Q9AGH8 1-484): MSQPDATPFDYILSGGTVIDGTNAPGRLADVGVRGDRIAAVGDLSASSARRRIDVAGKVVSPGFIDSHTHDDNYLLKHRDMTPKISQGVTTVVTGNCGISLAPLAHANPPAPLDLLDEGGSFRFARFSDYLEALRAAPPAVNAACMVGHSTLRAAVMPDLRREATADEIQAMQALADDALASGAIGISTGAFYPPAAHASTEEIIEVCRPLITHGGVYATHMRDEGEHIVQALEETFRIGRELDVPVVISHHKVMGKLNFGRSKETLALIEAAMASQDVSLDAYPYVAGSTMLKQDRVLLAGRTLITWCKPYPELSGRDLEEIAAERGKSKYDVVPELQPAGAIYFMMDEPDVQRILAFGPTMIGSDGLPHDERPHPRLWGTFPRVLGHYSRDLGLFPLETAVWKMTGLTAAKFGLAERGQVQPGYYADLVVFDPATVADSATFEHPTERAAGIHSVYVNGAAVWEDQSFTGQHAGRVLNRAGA
# Test: Substrate specificity of D-aminoacylase (hydrolysis of N-acyl amino acids, ninhydrin method)
# Type: biochemical
# Conditions: not given
# From the text: The activity of D-aminoacylase obtained by the method of this invention may be measured in accordance with Rosen method by using suitable amount of enzyme to decompose N-acetyl-D-methionine, of which the produced D-methionine may be quantitatively measured by D-amino acid oxidase or by ninhydrin method. [Note: H. Rosen, A modified ninhydrin colorimetric analysis for amino acids. Arch. Biochem. Biophys. 67:10-15 (1957)].
# The activity unit of enzyme of this invention is defined herewith as the enzyme quantity required for decomposing 10 mM N-acetyl-D-methionine solution for releasing 1μ mole D-methionine per minute at 37° C.
# The D-aminoacylase of this invention (hereinafter simply designated as "the acylase") may hydrolyze N-acyl-D-amino acids, but only slightly hydrolyze the N-acyl-L-amino acids.
row,Structure (SMILES),Hydrolysis by the acylase (in words)
1,CSCC[C@@H](NC(C)=O)C(=O)O [N-acetyl-D-methionine],strongest

# Same assay, conditions: D-form of the substrate; N-acetyl-D-methionine = 100
row,Structure (SMILES),Relative Activity D-form
1,CC(=O)NC(CC(C)C)C(=O)O (stereo not shown) [N-acetyl-leuoine],40
2,CSCC[C@H](NC(C)=O)C(=O)O [N-acetyl-methionine],100
3,CC(=O)N[C@H](C(=O)O)C(C)C [N-acetyl-valine],6
4,CC(=O)NC(C(=O)O)c1ccccc1 (stereo not shown) [N-acetyl-phenylglycine],3
5,CC(=O)N[C@@H](CC(N)=O)C(=O)O [N-acetyl-asparagine],8
6,CC(=O)N[C@@H](Cc1c[nH]c2ccccc12)C(=O)O [N-acetyl-tryptophan],14
7,CC(C)[C@H](NC(=O)CCl)C(=O)O [N-chloroacetyl-valine],42
8,CC(=O)N[C@@H](Cc1ccccc1)C(=O)O [N-acetyl-phenylalanine],80
9,CC(=O)N[C@@H](C)C(=O)O [N-acetyl-alanine],14

# Same assay, conditions: L-form of the substrate; relative to N-acetyl-D-methionine = 100
row,Structure (SMILES),Relative Activity L-form
1,CC(=O)NC(CC(C)C)C(=O)O (stereo not shown) [N-acetyl-leuoine],0.4
2,CSCC[C@H](NC(C)=O)C(=O)O [N-acetyl-methionine],0.8
3,CC(=O)N[C@H](C(=O)O)C(C)C [N-acetyl-valine],0
4,CC(=O)NC(C(=O)O)c1ccccc1 (stereo not shown) [N-acetyl-phenylglycine],0
5,CC(=O)N[C@@H](CC(N)=O)C(=O)O [N-acetyl-asparagine],0
6,CC(=O)N[C@@H](Cc1c[nH]c2ccccc12)C(=O)O [N-acetyl-tryptophan],0
7,CC(C)[C@H](NC(=O)CCl)C(=O)O [N-chloroacetyl-valine],0.6
8,CC(=O)N[C@@H](Cc1ccccc1)C(=O)O [N-acetyl-phenylalanine],0.8
9,CC(=O)N[C@@H](C)C(=O)O [N-acetyl-alanine],0.7

# Target: T1, D-aminoacylase
# Test: Influence of metallic ions on D-aminoacylase activities
# Type: biochemical
# Conditions: 1 mM metallic ion, 50 mM Tris-HCl pH 7.8, 30 minutes at 37° C., ninhydrin method
row,Structure (SMILES),Residual activities %
1,[Cl][Ni][Cl] [NiCl2],89%
2,[Cl][Fe][Cl] [FeCl2],60%
3,[Cl-].[Cl-].[Zn+2] [Zncl2],0%
4,[Cl-].[Cl-].[Mg+2] [MgCl2],95%
5,[Cl][Cd][Cl] [CdCl2],0%
6,[Cl-].[Cl-].[Sr+2] [SrCl2],87%
7,[Cl][Cu][Cl] [CuCl2],15%
8,[Ca+2].[Cl-].[Cl-] [CaCl2],99%
9,[Ba+2].[Cl-].[Cl-] [BaCl2],99%
10,[Cl-].[Cl-].[Co+2] [CoCl2],96%
11,[Cl][Mn][Cl] [MnCl2],70%
12,[Cl][Hg][Cl] [HgCl2],0%

# Target: T1, D-aminoacylase
# Test: Reagents (inhibitors) influencing the D-aminoacylase activities
# Type: biochemical
# Conditions: not given
row,Structure (SMILES),Inhibition of the enzyme by reagent (in words)
1,O=C(O)CN(CCN(CC(=O)O)CC(=O)O)CC(=O)O [EDTA],inhibited

# Same assay, conditions: 1 mM inhibitor, 50 mM Tris-HCl pH 7.8, 30 minutes at 37° C., ninhydrin method
row,Structure (SMILES),Residual activities %
1,O=C(O)c1cc[c]([Hg][Cl])cc1 [p-chloromercuibenzoic acid],0%

# Same assay, conditions: 1 mM inhibitor, 50 mM Tris-HCl pH 7.8, 30 minutes at 37° C., ninhydrin method; read-out: Residual activities %
row,Structure (SMILES),remaining activity at 1000 µM
1,O=CC(=O)c1ccccc1 [phenylglyoxal],65%
2,CCN1C(=O)C=CC1=O [N-ethylmaleimide],36%
3,NC(=O)CI [iodoacetamide],97%

# Same assay, conditions: 1 mM, 37° C., 30 minutes
row,Structure (SMILES),Inhibition of the enzyme by reagent (in words)
1,O=CC(=O)c1ccccc1 [phenylglyoxal],inhibited
2,CCN1C(=O)C=CC1=O [N-ethylmaleimide],inhibited
3,O=C(O)c1cc[c]([Hg][Cl])cc1 [p-chloromercuibenzoic acid],inhibited

# Same assay, conditions: pH 7.8, read-out: Residual activities %
row,Structure (SMILES),remaining activity at 1000 µM
1,O=C(O)CN(CCN(CC(=O)O)CC(=O)O)CC(=O)O [EDTA],22%
